In patent US10927350B2, “Methods for generating stem cell-derived beta cells and uses thereof” (President and Fellows of Harvard College, priority 2014, dated 2021):

Test system: endocrine progenitor cells directed to differentiate into SC-β cells
Assay: Stimulation index (glucose stimulated insulin secretion) of SC-β cells generated from endocrine progenitor cells in the presence of a JNK inhibitor
Assay type: cell-based, human
Settings: Stimulation index=[insulin@20 mM glucose]/[insulin@2 mM glucose]; Relative Stim Index=Stim Index/Stim Index of Control; versus SC-β cells generated in the absence of the JNK inhibitor; inhibitor added to Step 6 (FIG. 1, FIG. 2C)
Experimental: Stimulation index=[insulin@20 mM glucose]/[insulin@2 mM glucose]. Relative Stim Index=Stim Index/Stim Index of Control.
FIG. 2C is a schematic illustrating an exemplary method for generating SC-β cells by adding a JNK inhibitor to Step 6 of the exemplary protocol shown in FIG. 2B.
The methods of the present invention contemplate contacting cells (e.g., endocrine progenitor cells or precursors thereof) with effective amounts of one or more agents that decrease the level and/or activity of JNK. An “effective amount” of an agent (or composition containing such agent) refers to the amount sufficient to achieve a desired effect, e.g., when delivered to a cell or subject according to a selected administration form, route, and/or schedule. As will be appreciated by those of ordinary skill in this art, the absolute amount of a particular agent or composition that is effective may vary depending on such factors as the desired biological or pharmacological endpoint, the agent to be delivered, the target tissue, etc. Those of ordinary skill in the art will further understand that an “effective amount” may be contacted with cells or administered in a single dose, or the desired effect may be achieved by use of multiple doses. An effective amount of a composition may be an amount sufficient to reduce the severity of or prevent one or more symptoms or signs of a disorder (e.g., diabetes). […]

O=C1c2ccccc2-c2n[nH]c3cccc1c23 [SP600125, Anthra[1,9-cd]pyrazol-6(2H)-on]
Relative stimulation index of generated SC-β cells: greater stimulation index
